# Assays:
# larval zebrafish = test: Larval zebrafish behavioral profiling; assay type: in vivo; settings: 1–200 μM, 7 dpf, battery of light and acoustic stimuli
# C57BL/6J mice [1] = test: Head-twitch response; settings: i.p., 5-MeO-DMT 10 mg/kg, IBG and TBG fumarate salts 10 and 50 mg/kg
# C57/BL6J mice = test: Forced swim test in the absence of UMS; assay type: in vivo, mouse
# [2] = tested on: larval zebrafish expressing GCaMP5; test: Larval zebrafish seizure experiments; assay type: in vivo; settings: IBO and TBG 50 μM, PTZ 15 mM, 1 h
# [3] = tested on: mouse primary sensory cortex; test: In vivo spine dynamics, transcranial 2-photon imaging; settings: 24 h after treatment; DOI 10 mg/kg, TBG 50 mg/kg i.p.
# C57BL/6J mice [4] = settings: cited from earlier work
# [5] = tested on: rodents trained to discriminate DOM from saline; settings: cited from earlier work
compound,measurement,setting,value
O=C1NCCN1CCN1CCC(c2cn(-c3ccc(F)cc3)c3ccc(Cl)cc23)CC1 [sertindole],behavioral profile versus vehicle and lethal (eugenol) controls,larval zebrafish,more closely resembling the lethal control
picrotoxin,behavioral profile versus vehicle and lethal (eugenol) controls,larval zebrafish,produce behavioral phenotypes more closely resembling a lethal phenotype
O=S1OCC2C(CO1)C1(Cl)C(Cl)=C(Cl)C2(Cl)C1(Cl)Cl (centres unmarked) [endosulfan],behavioral profile versus vehicle and lethal (eugenol) controls,larval zebrafish,produce behavioral phenotypes more closely resembling a lethal phenotype
"COc1ccc2[nH]cc(CCN(C)C)c2c1 [5-MeO-DMT, 5-methoxy-N,N-dimethyltryptamine]",head-twitch response (hallucinogenic potential),C57BL/6J mice [1],produces a robust HTR
O=C(CCCN1CCC(O)(c2ccc(Cl)cc2)CC1)c1ccc(F)cc1 [haloperidol],behavioral profile versus vehicle and lethal (eugenol) controls,larval zebrafish,more closely resembling the lethal control
"CNC1(c2ccccc2Cl)CCCCC1=O (centres unmarked) [KET, ketamine]",FST immobility,"C57/BL6J mice; 24 h following administration, TBG 50 mg/kg, ketamine 3 mg/kg i.p.",significantly reduced immobility
same,durability of FST effect,C57/BL6J mice; 7 d post drug administration,appeared to be more durable
"C1CCc2nnnn2CC1 [PTZ, pentylenetetrazole]","seizurogenic potential (neural activity, GCaMP5 fluorescence)",[2],excessive neural activity
same,behavioral profile versus vehicle and lethal (eugenol) controls,larval zebrafish,produce behavioral phenotypes more closely resembling a lethal phenotype
"COc1cc(CC(C)N)c(OC)cc1I (centres unmarked) [DOI, 2,5-dimethoxy-4-iodoamphetamine]",spine elimination,[3],without impacting spine elimination
same,spine formation,[3],increased spine formation
CC(C)(C)c1ccc(C(O)CCCN2CCC(C(O)(c3ccccc3)c3ccccc3)CC2)cc1 (centres unmarked) [terfenadine],behavioral profile versus vehicle and lethal (eugenol) controls,larval zebrafish,more closely resembling the lethal control
COc1ccc2c(CCN(C)C)c[nH]c2c1 [6-MeO-DMT],head-twitch response,C57BL/6J mice [4],does not produce a head-twitch response
same,substitution for DOM,[5],"did not substitute for the hallucinogen 2,5-dimethoxy-4-methylamphetamine (DOM) at any dose"

# Source: PMC7874389 (Nature, 2020)
